Among the data in patent USRE48687E1, “Pyridinylaminopyrimidine derivatives, preparation process and use thereof” (Shanghai Allist Pharmaceuticals Co., Ltd., priority 2014, dated 2021) are IC50 values, retold here.

Each structure is given as a SMILES string. pIC50: −log10 of the molar value.

Format in all cases: cell-based
Holding throughout (conditions): SRB staining
Background: The SRB assay estimates cell density from bound dye.

The test system of assay [1] is human lung cancer cell (H1975, EGFR L858R/T790M resistant mutation). Put plainly: Proliferation inhibition (SRB) on human lung cancer cell H1975. From the text:
(§1) The pharmacodynamic action of the compound of the present invention in terms of inhibiting the proliferation of cancer cells may be assayed by conventional methods. […] Inhibition ratio (%)=[(blank control OD−inhibitor OD)/blank control OD]×100%
(§2) Blank control OD: the OD value of the well of normally growed cells without the action of a drug.
(§3) Inhibitor OD: the OD value of the well of cells with the action of the added compounds to be screened.
(§4) The median inhibitory concentration (IC50) value is obtained by the software GraphPad Prism 5.0 by the 4-parameter logistic curve fit calculation. Each experiment is repeated three times, and the average IC50 value for three experiments is used as the final index for the inhibitory ability.
(§5) Cells in the logarithmic phase were inoculated to 96-well culture plates (cell density: 5000/well, cell suspension: 180 μl/well), and cultured at 37° C. under 5% CO2 for 24 hours. After the culturing, the cells adhered to the well walls. Each of compounds was dissolved in DMSO in advance to formulate a […] stock solution. Upon testing, the stock solution was diluted with complete medium to 10 times the target concentration in another 96-cell plate. And then the compound was added at 20 μl/cell in the 96-well plate in which the cells were inoculated, i.e. the target concentration could be reached. The well for each concentration was triplicated, and the blank control was established. Cells continued to be cultured at 37° C. under 5% CO2 for 72 hours. After the termination of culturing, 50 μl pre-cooled (4° C.) 50% trichloroacetic acid, i.e., TCA was added to each of wells (final concentration=10%), and was placed at 4° C. for 1 hour to fix the cells. The resulting matter was washed with purified water for at least 5 times, and dried naturally in air or at 60° C. in an oven. 4 mg/ml Sulforhodamine B (SRB) solution prepared by 1% glacial acetic acid/purified water was added at 100 μl/well to each well so as to stain for 1 hour at room temperature. The supernatant was discarded. The residue was washed with 1% acetic acid for at least 5 times to remove the non-specifically binding, and dried for use. To each well was added 150 μl of 10 mM Tris-HCl solution for dissolving the contents therein.

Assay [2] has as its system human lung cancer cell (HCC827, EGFR Exon 19 deletion activating mutation). Put plainly: Proliferation inhibition (SRB) on human lung cancer cell HCC827.
Description: as §1, §2, §3, §4, §5

Assay [3] concerns human skin cancer cell (A431, wild-type EGFR). In words: Proliferation inhibition (SRB) on human skin cancer cell A431.
Description: as §1, §2, §3, §4, §5

`C=CC(=O)Nc1cc(Nc2ncc(Cl)c(-c3cn(C)c4cc(F)ccc34)n2)c(OC(C)C)nc1N(C)CCN(C)C` [Example 7 compound, N-{2-{[2-(dimethylamino)ethyl](methyl)amino}-6-isopropyloxy-5-{5-chloro-[4-(1-methyl-6-fluoro-1H-indol-3-yl)pyrimidin-2-yl]amino}pyridin-3-yl}acrylamide]: the pIC50 – broadly, −log10 of the IC50, conventionally taken in molar units – in assay [1] (Homo sapiens, NCI-H1975, 72 h) is 7.78; in assay [2] (Homo sapiens, HCC827, 72 h) it was 8.85; in assay [3] (Homo sapiens, A-431, 72 h) it was 6.51.

As to `C=CC(=O)Nc1cc(Nc2ncc(F)c(-c3cn(C)c4cc(F)c(F)cc34)n2)c(OC(C)C)nc1N(C)CCN(C)C` [Example 12 compound, N-{2-{[2-(dimethylamino)ethyl](methyl)amino}-6-isopropyloxy-5-{5-fluoro-[4-(1-methyl-5,6-difluoro-1H-indol-3-yl)pyrimidin-2-yl]amino}pyridin-3-yl}acrylamide], the pIC50 in assay [1] (Homo sapiens, NCI-H1975, 72 h) was 8.05; in assay [2] (Homo sapiens, HCC827, 72 h) it was 9.02; in assay [3] (Homo sapiens, A-431, 72 h), 6.47.

Take `C=CC(=O)Nc1cc(Nc2nccc(-c3cn(C)c4cc(F)c(F)cc34)n2)c(OC(C)C)nc1N(C)CCN(C)C` [Example 18 compound, N-{2-{[2-(dimethylamino)ethyl](methyl)amino}-6-isopropyloxy-5-{[4-(1-methyl-5,6-difluoro-1H-indol-3-yl)pyrimidin-2-yl]amino}pyridin-3-yl}acrylamide methanesulfonate]: the negative-log IC50 (pIC50) is 8.29 in assay [1] (72 hours, methanesulfonate); 8.65 in assay [2] (72 hours, methanesulfonate); 6.47 in assay [3] (72 hours, methanesulfonate).

Consider `C=CC(=O)Nc1cc(Nc2ncc(F)c(-c3cn(C)c4ccccc34)n2)c(OC(C)C)nc1N(C)CCN(C)C` [Example 11 compound, N-{2-{[2-(dimethylamino)ethyl](methyl)amino}-6-isopropyloxy-5-{5-fluoro-[4-(1-methyl-1H-indol-3-yl)pyrimidin-2-yl]amino}pyridin-3-yl}acrylamide], for which the pIC50 was 8.14 in assay [1] (Homo sapiens, NCI-H1975, 72 h); 8.65 in assay [2] (Homo sapiens, HCC827, 72 h); 6.68 in assay [3] (Homo sapiens, A-431, 72 h).

Turning to `C=CC(=O)Nc1cc(Nc2nccc(-c3cn(C)c4ccc(F)cc34)n2)c(OCC(F)(F)F)nc1N(C)CCN(C)C` [Example 15 compound, N-{2-{[2-(dimethylamino)ethyl](methyl)amino}-6-(2,2,2-trifluoroethoxyl)-5-{[4-(1-methyl-5-fluoro-1H-indol-3-yl)pyrimidin-2-yl]amino}pyridin-3-yl}acrylamide], the pIC50 in assay [1] (Homo sapiens, NCI-H1975, 72 h) was 8.20; in assay [2] (Homo sapiens, HCC827, 72 h), 9.16; in assay [3] (Homo sapiens, A-431, 72 h), 6.47.

For `C=CC(=O)Nc1cc(Nc2ncc(Cl)c(-c3cnn(C)c3)n2)c(OC(C)C)nc1N(C)CCN(C)C` [Example 21 compound, N-{2-{[2-(dimethylamino)ethyl](methyl)amino}-6-isopropyloxy-5-{[5-chloro-4-(1-methyl-1H-pyrazol-4-yl)pyrimidin-2-yl]amino}pyridin-3-yl}acrylamide], the negative-log IC50 (pIC50) is 7.73 in assay [1] (Homo sapiens, NCI-H1975, 72 h); 6.85 in assay [2] (Homo sapiens, HCC827, 72 h); 6.43 in assay [3] (Homo sapiens, A-431, 72 h).

Consider `C=CC(=O)Nc1cc(Nc2ncc(Cl)c(-c3cn(C)c4cc(F)c(F)cc34)n2)c(OC(C)C)nc1N(C)CCN(C)C` [Example 8 compound, N-{2-{[2-(dimethylamino)ethyl](methyl)amino}-6-isopropyloxy-5-{5-chloro-[4-(1-methyl-5,6-difluoro-1H-indol-3-yl)pyrimidin-2-yl]amino}pyridin-3-yl}acrylamide], for which the negative-log IC50 (pIC50) in assay [1] (Homo sapiens, NCI-H1975, 72 h) was 8.08; in assay [2] (Homo sapiens, HCC827, 72 h), 8.22; in assay [3] (Homo sapiens, A-431, 72 h), 6.43.

With `C=CC(=O)Nc1cc(Nc2nccc(-c3cn(C)c4cc(F)c(F)cc34)n2)c(OC(C)C)nc1N(C)CCN(C)C` [Example 6 compound, N-{2-{[2-(dimethylamino)ethyl](methyl)amino}-6-isopropyloxy-5-{[4-(1-methyl-5,6-difluoro-1H-indol-3-yl)pyrimidin-2-yl]amino}pyridin-3-yl}acrylamide], the pIC50 in assay [1] (Homo sapiens, NCI-H1975, 72 h) is 8.28; in assay [2] (Homo sapiens, HCC827, 72 h) it was 8.63; in assay [3] (Homo sapiens, A-431, 72 h) it was 6.47.

For `C=CC(=O)Nc1cc(Nc2nccc(-c3cn(C)c4ccc(F)cc34)n2)c(OC(C)C)nc1N(C)CCN(C)C` [Example 5 compound, N-{2-{[2-(dimethylamino)ethyl](methyl)amino}-6-isopropyloxy-5-{[4-(1-methyl-5-fluoro-1H-indol-3-yl)pyrimidin-2-yl]amino}pyridin-3-yl}acrylamide], the pIC50 is 8.32 in assay [1] (Homo sapiens, NCI-H1975, 72 h); 8.59 in assay [2] (Homo sapiens, HCC827, 72 h); 6.74 in assay [3] (Homo sapiens, A-431, 72 h).

For `C=CC(=O)Nc1cc(Nc2ncc(Cl)c(-c3cnc(OC)nc3)n2)c(OC(C)C)nc1N(C)CCN(C)C` [Example 22 compound, N-{2-{[2-(dimethylamino)ethyl](methyl)amino}-6-isopropyloxy-5-{[5-chloro-2′-methoxy-(4,5′-bipyrimidine)-2-yl]amino}pyridin-3-yl}acrylamide], the negative logarithm of the IC50 (pIC50) in assay [1] (Homo sapiens, NCI-H1975, 72 h) is 7.42; in assay [2] (Homo sapiens, HCC827, 72 h), 7.48; in assay [3] (Homo sapiens, A-431, 72 h), 5.56.

With `C=CC(=O)Nc1cc(Nc2nccc(-c3cn(C)c4ccccc34)n2)c(OC)cc1N(C)CCN(C)C` [AZD9291, reference compound], the negative-log IC50 (pIC50) is 8.42 in assay [2] (Homo sapiens, 72 hours) and 7.15 in assay [3] (Homo sapiens, A-431, 72 hours).

Regarding `C=CC(=O)Nc1cc(Nc2ncc(Cl)c(-c3cn(C)c4ccccc34)n2)c(OCC(F)(F)F)nc1N(C)CCN(C)C` [Example 4 compound, N-{2-{[2-(dimethylamino)ethyl](methyl)amino}-6-(2,2,2-trifluoroethoxyl)-5-{5-chloro-[4-(1-methyl-1H-indol-3-yl)pyrimidin-2-yl]amino}pyridin-3-yl}acrylamide], the negative-log IC50 (pIC50) in assay [1] (Homo sapiens, NCI-H1975, 72 h) was 8.21; in assay [2] (Homo sapiens, HCC827, 72 h) it was 8.72; in assay [3] (Homo sapiens, A-431, 72 h), 6.79.

As for `C=CC(=O)Nc1cc(Nc2nccc(-c3cn(C)c4ccccc34)n2)c(OC(C)C)nc1N(C)CCN(C)C` [Example 2 compound, N-{2-{[2-(dimethylamino)ethyl](methyl)amino}-6-isopropyloxy-5-{[4-(1-methyl-1H-indol-3-yl)pyrimidin-2-yl]amino}pyridin-3-yl}acrylamide], the negative-log IC50 (pIC50) in assay [1] (Homo sapiens, NCI-H1975, 72 h) was 8.26; in assay [2] (Homo sapiens, HCC827, 72 h), 8.37; in assay [3] (Homo sapiens, A-431, 72 h), 6.71.

As to `C=CC(=O)Nc1cc(Nc2ncc(Cl)c(-c3cnc4c(ccn4C)c3)n2)c(OC(C)C)nc1N(C)CCN(C)C` [Example 20 compound, N-{2-{[2-(dimethylamino)ethyl](methyl)amino}-6-isopropyloxy-5-{[5-chloro-4-(1-methyl-1H-pyrrolo[2,3-b]pyridin-5-yl)pyrimidin-2-yl]amino}pyridin-3-yl}acrylamide], the pIC50 in assay [1] (Homo sapiens, NCI-H1975, 72 h) is 7.37; in assay [2] (Homo sapiens, HCC827, 72 h) it was 8.05; in assay [3] (Homo sapiens, A-431, 72 h) it was 6.10.

For `C=CC(=O)Nc1cc(Nc2ncc(F)c(-c3cn(C)c4ccc(F)cc34)n2)c(OC(C)C)nc1N(C)CCN(C)C` [Example 10 compound, N-{2-{[2-(dimethylamino)ethyl](methyl)amino}-6-isopropyloxy-5-{5-fluoro-[4-(1-methyl-5-fluoro-1H-indol-3-yl)pyrimidin-2-yl]amino}pyridin-3-yl}acrylamide], the negative-log IC50 (pIC50) is 8.27 in assay [1] (Homo sapiens, NCI-H1975, 72 h); 8.58 in assay [2] (Homo sapiens, HCC827, 72 h); 6.68 in assay [3] (Homo sapiens, A-431, 72 h).

As for `C=CC(=O)Nc1cc(Nc2ncc(Cl)c(-c3cn(C)c4cc(F)c(F)cc34)n2)c(OC(C)C)nc1N(C)CCN(C)C` [Example 17 compound, N-{2-{[2-(dimethylamino)ethyl](methyl)amino}-6-isopropyloxy-5-{5-chloro-[4-(1-methyl-5,6-difluoro-1H-indol-3-yl)pyrimidin-2-yl]amino}pyridin-3-yl}acrylamide methanesulfonate], the pIC50 is 8.12 in assay [1] (72 hours, methanesulfonate) and 8.25 in assay [2] (72 hours, methanesulfonate).
